Data reported in US9072703B2 (Ipsen Pharma S.A.S., priority 2008, dated 2015).
Non-standard residues stand in square brackets, D forms with d. Residues, ends and D or L forms follow the SMILES beside them. No end group written: not given here. Nle = CCCC[C@H](N)C(=O)O; Ac5c = NC1(C(=O)O)CCCC1; Aib = CC(C)(N)C(=O)O

Assays:
[1] = Human plasma half-life assay; assay type: in vitro ADME; conditions: 37° C., LC-MS, read-out: Human Plasma T½ (converted)
Description: (§1) B. Human and Rat Plasma Half-Life Assay
(§2) 50 μL was removed at various times, like at 0, 1, 2, 3, 4, 8, 24, 32, 48, 56, 72 hours, mixed with 5 μL formic acid and 150 μL acetonitrile in a microcentrifuge tube, vertexed, and centrifuged for 10 minutes at 10K rpm. The supernatant was transferred to an injection vial and analyzed by LC-MS. The LC-MS system consisted of an API4000 mass spectrometer with an ESI probe. Positive ion mode and full scan detection were used. HPLC separation was carried out on a Luna 3μ C8 (2), 2×30 mm column with a gradient from 90% A to 90% B in 10 minutes at a flow rate of 0.3 ml/min. Buffer A was 1% formic acid in water and buffer B was 1% formic acid acetonitrile.

[2] = Rat plasma half-life assay; assay type: in vitro ADME; conditions: 37° C., LC-MS, read-out: Rat Plasma T½ (converted)
Description: as §1, §2

Sprague Dawley rats = assay: Determination of in vivo insulin secretion in normal rats; parameters: species or system rat
Description: D. Determination of In Vivo Insulin Secretion in Normal Rats
Male Sprague Dawley rats with a body weight of approximately 275-300 g were used as experimental subjects. The day prior to the treatment, right atrial cannulae were implanted via the jugular vein under chlorohydrate. Each cannula was filled with 100 u/ml heparin saline and tied. The rats were fasted for approximately 18 hours prior to dosing with the compound or the vehicle (saline/0.25% BSA). The day of the experiment, aliquots of compound were thawed, brought to room temperature and vortexed thoroughly. A careful check was made for any sign of compound coming out of solution. 10 minutes prior to compound/glucose injection, a 500 μl blood sample was withdrawn and replaced with an equal volume of heparinized saline (10 u/ml). At time 0, a 500 μl blood sample was withdrawn through the cannula. Next, either the vehicle or the appropriate dose of the compound was injected into the cannula and pushed in with the glucose (1 g/kg) or vehicle solution. Finally, 500 μl of volume of heparinized saline (10 u/ml) was used to push in the remaining glucose through the cannula. Additional 500 μl blood samples were withdrawn at 2.5, 5, 10, and 20-minute post-glucose dosing; each immediately followed by a bolus, iv injection of 500 μl heparinized saline (10 u/ml) through the cannula. The plasma was collected from the blood samples by centrifugation, and stored at −20° C. until assay for insulin content.
The in vivo effect of the compound of Example 20 was determined in a separate test under the identical experimental conditions as described above, and numerical values of the total insulin secretion for the compound of Example 20 are summarized in Table 4.

[3] = Table 3, fasted male Sprague Dawley rats, compound by cannula with glucose 1 g/kg, blood samples to 20 min

| Molecule | half-life at 0.1 mg/ml [1] | half-life at 0.1 mg/ml [2] | AUC (total insulin secretion) (Sprague Dawley rats; [3]) | AUC (total insulin secretion) (Sprague Dawley rats; Table 4, separate test under identical experimental conditions) |
| --- | --- | --- | --- | --- |
| YAEGTFISDY[Ac5c]IAMDKIHQQDFVNWLLAQKGKKNDWKHNI[Ac5c]Q-OH [Example 1, (A5c^11, 41)hGIP(1-42)-OH] | 11.4 h | 2.2 h | 304.92 |  |
| YAEGTFISDY[Ac5c]IAMDKIHQQDFVNWLLAQKGKKNDWKHNITQN-OH [Example 4, (A5c^11, Asn^43)hGIP(1-43)-OH] | 7.2 h | 4.1 h | 265.11 |  |
| YAEGTFISDYSI[Aib]MDKIHQQDFVNWLLAQKGKKNDWKHN[Ac5c]TQ-OH [Example 7, (Aib^13, A5c^40)hGIP(1-42)-OH] | 7 h | 1.7 h | 176.90 |  |
| CC[C@H](C)[C@H](NC(=O)[C@H](CCCCN)NC(=O)[C@H](CC(=O)O)NC(=O)C1(NC(=O)[C@H](C)NC(=O)[C@@H](NC(=O)C2(NC(=O)[C@H](Cc3ccc(O)cc3)NC(=O)[C@H](CC(=O)O)NC(=O)[C@H](CO)NC(=O)[C@@H](NC(=O)[C@H](Cc3ccccc3)NC(=O)[C@@H](NC(=O)CNC(=O)[C@H](CCC(=O)O)NC(=O)[C@H](C)NC(=O)[C@@H](N)Cc3ccc(O)cc3)[C@@H](C)O)[C@@H](C)CC)CCCC2)[C@@H](C)CC)CCCC1)C(=O)N[C@@H](Cc1c[nH]cn1)C(=O)N[C@@H](CCC(N)=O)C(=O)N[C@@H](CCC(N)=O)C(=O)N[C@@H](CC(=O)O)C(=O)N[C@@H](Cc1ccccc1)C(=O)N[C@H](C(=O)N[C@@H](CC(N)=O)C(=O)N[C@@H](Cc1c[nH]c2ccccc12)C(=O)N[C@@H](CC(C)C)C(=O)N[C@@H](CC(C)C)C(=O)N[C@@H](C)C(=O)N[C@@H](CCC(N)=O)C(=O)N[C@@H](CCCCN)C(=O)NCC(=O)N[C@@H](CCCCN)C(=O)N[C@@H](CCCCN)C(=O)N[C@@H](CC(N)=O)C(=O)N[C@@H](CC(=O)O)C(=O)N[C@@H](Cc1c[nH]c2ccccc12)C(=O)N[C@@H](CCCCN)C(=O)N[C@@H](Cc1c[nH]cn1)C(=O)N[C@@H](CC(N)=O)C(=O)N[C@H](C(=O)N[C@H](C(=O)N[C@@H](CCC(N)=O)C(=O)N[C@@H](Cc1c[nH]cn1)C(=O)O)[C@@H](C)O)[C@@H](C)CC)C(C)C [Example 20, (A5c^11, 14, His^43)hGIP(1-43)-OH] | 7.2 h | 4.9 h |  | 149.39 |
| Glucose-dependent insulinotropic polypeptide [GIP, reference compound] |  |  | 114.87 |  |
| YAEGTFISDY[Ac5c]IAMDKIHQQDFVNWLLAQKGKKNDWKHN[Ac5c]TQ-OH [Example 2, (A5c^11, 40)hGIP(1-42)-OH] | 14.1 h | 2.7 h | 286.02 |  |
| CC[C@H](C)[C@H](NC(=O)[C@H](CCCCN)NC(=O)[C@H](CC(=O)O)NC(=O)[C@H](CCSC)NC(=O)[C@H](C)NC(=O)[C@@H](NC(=O)C1(NC(=O)[C@H](Cc2ccc(O)cc2)NC(=O)[C@H](CC(=O)O)NC(=O)[C@H](CO)NC(=O)[C@@H](NC(=O)[C@H](Cc2ccccc2)NC(=O)[C@@H](NC(=O)CNC(=O)[C@H](CCC(=O)O)NC(=O)[C@H](C)NC(=O)[C@@H](N)Cc2ccc(O)cc2)[C@@H](C)O)[C@@H](C)CC)CCCC1)[C@@H](C)CC)C(=O)N[C@@H](Cc1c[nH]cn1)C(=O)N[C@@H](CCC(N)=O)C(=O)N[C@@H](CCC(N)=O)C(=O)N[C@@H](CC(=O)O)C(=O)N[C@@H](Cc1ccccc1)C(=O)N[C@H](C(=O)N[C@@H](CC(N)=O)C(=O)N[C@@H](Cc1c[nH]c2ccccc12)C(=O)N[C@@H](CC(C)C)C(=O)N[C@@H](CC(C)C)C(=O)N[C@@H](C)C(=O)N[C@@H](CCC(N)=O)C(=O)N[C@@H](CCCCN)C(=O)NCC(=O)N[C@@H](CCCCN)C(=O)N[C@@H](CCCCN)C(=O)N[C@@H](CC(N)=O)C(=O)N[C@@H](CC(=O)O)C(=O)N[C@@H](Cc1c[nH]c2ccccc12)C(=O)N[C@@H](CCCCN)C(=O)N[C@@H](Cc1c[nH]cn1)C(=O)N[C@@H](CC(N)=O)C(=O)N[C@H](C(=O)N[C@H](C(=O)N[C@@H](CCC(N)=O)C(=O)N[C@@H](Cc1c[nH]cn1)C(=O)O)[C@@H](C)O)[C@@H](C)CC)C(C)C [Example 3, (A5c^11, His^43)hGIP(1-43)-OH] | 7 h | 1.9 h | 269.83 |  |
| YAEGTFISDYSI[Aib][Nle]DKIHQQDFVNWLLAQKGKKNDWKHN[Ac5c]TQ-OH [Example 6, (Aib^13, Nle^14, A5c^40)hGIP(1-42)-OH] | 7.8 h | 1.9 h | 180.31 |  |
| YAEGTFISDYSI[Aib]MDKIHQQDFVNWLLAQKGKKNDWKHNITQD-NH2 [Example 5, (Aib^13, Asp^43)hGIP(1-43)-NH2] | 5.5 h | 1.3 h | 196.17 |  |
| CC[C@H](C)[C@H](NC(=O)[C@H](CCCCN)NC(=O)[C@H](CC(=O)O)NC(=O)[C@H](CCSC)NC(=O)[C@H](C)NC(=O)[C@@H](NC(=O)C1(NC(=O)[C@H](Cc2ccc(O)cc2)NC(=O)[C@H](CC(=O)O)NC(=O)[C@H](CO)NC(=O)[C@@H](NC(=O)[C@H](Cc2ccccc2)NC(=O)[C@@H](NC(=O)CNC(=O)[C@H](CCC(=O)O)NC(=O)[C@H](C)NC(=O)[C@@H](N)Cc2ccc(O)cc2)[C@@H](C)O)[C@@H](C)CC)CCCC1)[C@@H](C)CC)C(=O)N[C@@H](Cc1c[nH]cn1)C(=O)N[C@@H](CCC(N)=O)C(=O)N[C@@H](CCC(N)=O)C(=O)N[C@@H](CC(=O)O)C(=O)N[C@@H](Cc1ccccc1)C(=O)N[C@H](C(=O)N[C@@H](CC(N)=O)C(=O)N[C@@H](Cc1c[nH]c2ccccc12)C(=O)N[C@@H](CC(C)C)C(=O)N[C@@H](CC(C)C)C(=O)N[C@@H](C)C(=O)N[C@@H](CCC(N)=O)C(=O)N[C@@H](CCCCN)C(=O)N[C@@H](Cc1c[nH]cn1)C(N)=O)C(C)C [Example 29, (A5c^11, His^31)hGIP(1-31)-NH2] (H-YAEGTFISDY[Ac5c]IAMDKIHQQDFVNWLLAQKH-NH2; N-terminus assumed) | 7.2 h | 7.5 h |  |  |
| CCCCCCCCCCCC(=O)NCCC[C@H](NC(=O)[C@H](CCCCN)NC(=O)CNC(=O)[C@H](CCCCN)NC(=O)[C@H](CCC(N)=O)NC(=O)[C@H](C)NC(=O)[C@H](CC(C)C)NC(=O)[C@H](CC(C)C)NC(=O)[C@H](Cc1c[nH]c2ccccc12)NC(=O)[C@H](CC(N)=O)NC(=O)[C@@H](NC(=O)[C@H](Cc1ccccc1)NC(=O)[C@H](CC(=O)O)NC(=O)[C@H](CCC(N)=O)NC(=O)[C@H](CCC(N)=O)NC(=O)[C@H](Cc1c[nH]cn1)NC(=O)[C@@H](NC(=O)[C@H](CCCCN)NC(=O)[C@H](CC(=O)O)NC(=O)[C@H](CCSC)NC(=O)[C@H](C)NC(=O)[C@@H](NC(=O)C1(NC(=O)[C@H](Cc2ccc(O)cc2)NC(=O)[C@H](CC(=O)O)NC(=O)[C@H](CO)NC(=O)[C@@H](NC(=O)[C@H](Cc2ccccc2)NC(=O)[C@@H](NC(=O)CNC(=O)[C@H](CCC(=O)O)NC(=O)[C@H](C)NC(=O)[C@@H](N)Cc2ccc(O)cc2)[C@@H](C)O)[C@@H](C)CC)CCCC1)[C@@H](C)CC)[C@@H](C)CC)C(C)C)C(=O)N[C@@H](CC(N)=O)C(=O)N[C@@H](CC(=O)O)C(=O)N[C@@H](Cc1c[nH]c2ccccc12)C(=O)N[C@@H](CCCCN)C(=O)N[C@@H](Cc1c[nH]cn1)C(=O)N[C@@H](CC(N)=O)C(=O)N[C@H](C(=O)N[C@H](C(=O)N[C@@H](CCC(N)=O)C(=O)N[C@@H](Cc1c[nH]cn1)C(=O)O)[C@@H](C)O)[C@@H](C)CC [Example 35, [A5c^11, Orn^33(N—C(O)—(CH2)10—CH3), His^43]hGIP(1-43)-OH] | 9.5 h | 17 h |  |  |
